Literature values as cited in patent US20020004584A1, “HIV immune adjuvant therapy” (priority 2000, published 2002).

Assays:
HIV-1 = details: preclinical studies
[1] = in vivo
[2] = in vivo; remark: listed apart in the source

Compound: NC(=O)NO [Hydroxyurea]
- effect on the activity of didanosine (HIV-1): synergistic effect

Compound: CC(C)c1nc(CN(C)C(=O)N[C@H](C(=O)N[C@@H](Cc2ccccc2)C[C@H](O)[C@H](Cc2ccccc2)NC(=O)OCc2cncs2)C(C)C)cs1 [Ritonavir, ritonavir]
- adverse effects [1]: troublesome adverse effects

Compound: CC(C)(C)NC(=O)[C@@H]1C[C@@H]2CCCC[C@@H]2CN1C[C@@H](O)[C@H](Cc1ccccc1)NC(=O)[C@H](CC(N)=O)NC(=O)c1ccc2ccccc2n1 [saquinavir]
- bioavailability [2]: poor bioavailability
